Laboratory results as given in US12441725B2, “ISO-citrate dehydrogenase (IDH) inhibitor” (ZHEJIANG METON PHARMACEUTICAL CO., LTD, priority 2019, dated 2025).

Columns and labels:
[1] = target: T1, IDH1 R132H (Homo sapiens, UniProt O75874, R132H); test: Biochemical assay for IDH inhibition (NADPH fluorescence), mutant IDH1 R132H; conditions: 50 nM IDH1-R132H, 1 hour pre-incubation, in triplet
T1 construct: 6xHis
In short: (§1)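 The read-out was the linear-phase loss of NADPH fluorescence (340/460 nm) over 15 min, background-subtracted and normalized to DMSO wells, giving triplicate IC50 values. Beforehand, R132H (50 nM) or R132C (25 nM) was exposed to compound for 1 h at room temperature with 1.33 mM α-KG at pH 7.5, and the reaction was triggered by adding an 80 μM NADPH solution.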

[2] = target: T2, IDH (endogenous IDH1 R132C) in HT1080 cell (Homo sapiens, UniProt O75874, R132C); test: Cell-based assay for IDH inhibition (decrease of D-2-HG) in HT1080 cells; conditions: human fibrosarcoma cell line HT1080, 16 hours treatment, D-2-HG by LC-MS, in triplet
T2 construct: which harbor endogenous heterozygous IDH1 R132C and R132H mutation respectively and accumulate D-2-HG
T2 sequence (O75874 2-414 R132C): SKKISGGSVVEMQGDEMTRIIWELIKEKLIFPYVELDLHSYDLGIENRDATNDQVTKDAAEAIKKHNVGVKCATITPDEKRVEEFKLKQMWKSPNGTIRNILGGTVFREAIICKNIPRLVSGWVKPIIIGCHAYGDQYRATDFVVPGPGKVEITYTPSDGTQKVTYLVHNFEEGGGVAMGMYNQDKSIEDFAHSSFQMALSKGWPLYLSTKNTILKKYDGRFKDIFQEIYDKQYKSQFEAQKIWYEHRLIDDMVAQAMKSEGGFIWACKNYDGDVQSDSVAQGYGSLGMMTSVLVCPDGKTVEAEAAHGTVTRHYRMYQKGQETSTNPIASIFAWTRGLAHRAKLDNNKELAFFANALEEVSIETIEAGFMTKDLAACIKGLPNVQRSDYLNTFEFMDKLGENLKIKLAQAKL
In short: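 LC-MS/MS quantification of D-2-HG, normalized to glutamate, follows a 16 h compound exposure of IDH1 R132C HT1080 cells in DMEM with 10% FBS. Extraction uses pre-chilled 40% methanol/40% acetonitrile in water. Triplicate determinations; IC50 from D-2-HG levels relative to DMSO-treated cells.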

[3] = target: T3, IDH1 R132C (Homo sapiens, UniProt O75874, R132C); test: Biochemical assay for IDH inhibition (NADPH fluorescence), mutant IDH1 R132C; conditions: 25 nM IDH1-R132C, 1 hour pre-incubation, in triplet
T3 construct: 6xHis
T3 sequence (O75874 whole entry R132C): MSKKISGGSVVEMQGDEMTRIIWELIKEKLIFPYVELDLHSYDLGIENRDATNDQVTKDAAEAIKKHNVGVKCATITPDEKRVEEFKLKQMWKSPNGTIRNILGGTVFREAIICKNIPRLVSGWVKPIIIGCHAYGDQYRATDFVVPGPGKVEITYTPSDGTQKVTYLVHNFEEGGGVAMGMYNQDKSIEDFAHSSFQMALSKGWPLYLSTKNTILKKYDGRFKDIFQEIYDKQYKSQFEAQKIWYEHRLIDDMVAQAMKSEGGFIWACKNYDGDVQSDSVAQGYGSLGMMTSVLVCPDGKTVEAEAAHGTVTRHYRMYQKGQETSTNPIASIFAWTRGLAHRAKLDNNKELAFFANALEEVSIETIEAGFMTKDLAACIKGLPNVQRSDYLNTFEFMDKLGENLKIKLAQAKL
In short: as §1

T1 sequence (O75874 whole entry R132H): as the sequence (O75874 whole entry R132C) above, with C132H counted along it

Row | Compound | IC50 [1] [nM] | IC50 [2] [nM] | IC50 [3] [nM]
1 | CCN1Cc2c(ccnc2N[C@@H](C)c2cc(F)c(-c3ccnc(C4COC4)c3)cc2F)C1=O [Compound 93, (S)-4-((1-(2,5-difluoro-4-(2-(oxetan-3-yl)pyridin-4-yl)phenyl)ethyl)amino)-2-ethyl-2,3-dihydro-1H-pyrrolo[3,4-c]pyridin-1-one] | > 1000 | > 1000 | > 1000
2 | CCN1Cc2c(ccnc2N[C@@H](C)c2ccc(OCC3CNC3)c(F)c2)C1=O [Compound 28, (S)-4-((1-(4-(azetidin-3-ylmethoxy)-3-fluorophenyl)ethyl)amino)-2-ethyl-2,3-dihydro-1H-pyrrolo[3,4-c]pyridin-1-one] | > 1000 | > 1000 | > 1000
3 | CCN1Cc2c(N[C@@H](C)c3ccc(-c4ccnc(C(C)(C)C)c4)c(F)c3)ncnc2C1=O [Compound 66, (S)-4-((1-(4-(2-(tert-butyl)pyridin-4-yl)-3-fluorophenyl)ethyl)amino)-6-ethyl-5H-pyrrolo[3,4-d]pyrimidin-7(6H)-one] | 100 to 500 | 500 to 1000 | > 1000
4 | CCN1Cc2c(ccnc2N[C@@H](C)c2ccc(Nc3ccccc3)c(F)c2)C1=O [Compound 32, (S)-2-ethyl-4-((1-(3-fluoro-4-(phenylamino)phenyl)ethyl)amino)-2,3-dihydro-1H-pyrrolo[3,4-c]pyridin-1-one] | > 1000 | > 1000 | > 1000
5 | CCN1Cc2c(N[C@@H](C)c3ccc(Oc4ccc(C)cc4)c(F)c3)ncc(F)c2C1=O [Compound 18, (S)-2-ethyl-7-fluoro-4-((1-(3-fluoro-4-(p-tolyloxy)phenyl)ethyl)amino)-2,3-dihydro-1H-pyrrolo[3,4-c]pyridin-1-one] | 100 to 500 | > 1000 | > 1000
6 | CCN1Cc2c(ccnc2N[C@@H](C)c2cn(-c3ccnc(C(C)(C)C)c3)cn2)C1=O [Compound 56, (S)-4-((1-(1-(2-(tert-butyl)pyridin-4-yl)-1H-imidazol-4-yl)ethyl)amino)-2-ethyl-2,3-dihydro-1H-pyrrolo[3,4-c]pyridin-1-one] | > 1000 | > 1000 | > 1000
7 | CCN1Cc2c(ccnc2N[C@@H](C)c2ccc(-c3ccc(F)cc3)c(F)c2)C1=O [Compound 74, (S)-4-((1-(2,4′-difluoro-[1,1′-biphenyl]-4-yl)ethyl)amino)-2-ethyl-2,3-dihydro-1H-pyrrolo[3,4-c]pyridin-1-one] | > 1000 | > 1000 | > 1000
8 | CCN1Cc2c(ccnc2N[C@@H](C)c2ccc(Oc3ccc(C(C)(C)C)nc3)c(F)c2)C1=O [Compound 7, (S)-4-((1-(4-((6-(tert-butyl)pyridin-3-yl)oxy)-3-fluorophenyl)ethyl)amino)-2-ethyl-2,3-dihydro-1H-pyrrolo[3,4-c]pyridin-1-one] | 100 to 500 | 500 to 1000 | > 1000
9 | CCN1Cc2c(ccnc2N[C@@H](C)c2ccc(-c3ccn(C)n3)c(F)c2)C1=O [Compound 83, (S)-2-ethyl-4-((1-(3-fluoro-4-(1-methyl-1H-pyrazol-3-yl)phenyl)ethyl)amino)-2,3-dihydro-1H-pyrrolo[3,4-c]pyridin-1-one] | > 1000 | > 1000 | > 1000
10 | CCN1Cc2c(ccnc2N[C@@H](C)c2ccc(OC3CCc4ccccc43)c(F)c2)C1=O (stereo partly drawn) [Compound 6, 4-(((1S)-1-(4-((2,3-dihydro-1H-inden-1-yl)oxy)-3-fluorophenyl)ethyl)amino)-2-ethyl-2,3-dihydro-1H-pyrrolo[3,4-c]pyridin-1-one] | 500 to 1000 | > 1000 | > 1000
11 | CCN1Cc2c(ccnc2N[C@@H](C)c2ccc(C3CCCC3)c(F)c2)C1=O [Compound 68, 4-[[(1S)-1-(4-cyclopentyl-3-fluoro-phenyl)ethyl]amino]-2-ethyl-3H-pyrrolo[3,4-c]pyridin-1-one] | 500 to 1000 | > 1000 | > 1000
12 | CCN1Cc2c(ccnc2N[C@@H](C)c2cc(F)c(-c3cc(OC(C)(C)C)cc(C)n3)cc2F)C1=O [Compound 129, (S)-4-((1-(4-(4-(tert-butoxy)-6-methylpyridin-2-yl)-2,5-difluorophenyl)ethyl)amino)-2-ethyl-2,3-dihydro-1H-pyrrolo[3,4-c]pyridin-1-one] | < 100 | < 100 | < 100
13 | C[C@H](Nc1nccc2c1CN(C(CF)CF)C2=O)c1ccc(-c2ccnc(C(C)(C)C)c2)c(F)c1 [Compound 38, (S)-4-((1-(4-(2-(tert-butyl)pyridin-4-yl)-3-fluorophenyl)ethyl)amino)-2-(1,3-difluoropropan-2-yl)-2,3-dihydro-1H-pyrrolo[3,4-c]pyridin-1-one] | < 100 | 500 to 1000 | 100 to 500
14 | CCN1Cc2c(ccnc2N[C@@H](C)c2ccc(-c3ccnc4ccccc34)c(F)c2)C1=O [Compound 70, (S)-2-ethyl-4-((1-(3-fluoro-4-(quinolin-4-yl)phenyl)ethyl)amino)-2,3-dihydro-1H-pyrrolo[3,4-c]pyridin-1-one] | > 1000 | > 1000 | > 1000
15 | CCN1Cc2c(ccnc2N[C@@H](C)c2cc(F)c(-c3cc(C(C)(C)F)cc(C)n3)cc2F)C1=O [Compound 113, (S)-4-((1-(2,5-difluoro-4-(4-(2-fluoropropan-2-yl)-6-methylpyridin-2-yl)phenyl)ethyl)amino)-2-ethyl-2,3-dihydro-1H-pyrrolo[3,4-c]pyridin-1-one] | < 100 | < 100 | < 100
16 | CCN1Cc2c(ccnc2N[C@@H](C)c2cc(F)c(-c3ccnc(C(C)(C)C)c3)c(F)c2)C1=O [Compound 43, (S)-4-((1-(4-(2-(tert-butyl)pyridin-4-yl)-3,5-difluorophenyl)ethyl)amino)-2-ethyl-2,3-dihydro-1H-pyrrolo[3,4-c]pyridin-1-one] | < 100 | 100 to 500 | < 100
17 | CCN1Cc2c(ccnc2N[C@@H](C)c2cc(F)c(-c3cncc(C(C)(C)C)c3)cc2F)C1=O [Compound 109, (S)-4-((1-(4-(5-(tert-butyl)pyridin-3-yl)-2,5-difluorophenyl)ethyl)amino)-2-ethyl-2,3-dihydro-1H-pyrrolo[3,4-c]pyridin-1-one] | < 100 | < 100 | < 100

Next, values leading:

Row | IC50 [1] [nM] | IC50 [2] [nM] | IC50 [3] [nM] | Compound
18 | < 100 | < 100 | < 100 | CCN1Cc2c(ccnc2N[C@@H](C)c2cc(F)c(-c3cc(C(C)(C)F)c(COC)cn3)cc2F)C1=O [Compound 147, (S)-4-((1-(2,5-difluoro-4-(4-(2-fluoropropan-2-yl)-5-(methoxymethyl)pyridin-2-yl)phenyl)ethyl)amino)-2-ethyl-2,3-dihydro-1H-pyrrolo[3,4-c]pyridin-1-one]
19 | < 100 | < 100 | < 100 | CCN1Cc2c(ccnc2N[C@@H](C)c2cc(F)c(-c3cc(C(F)(F)F)c(OC)cn3)cc2F)C1=O [Compound 165, (S)-4-((1-(2,5-difluoro-4-(5-methoxy-4-(trifluoromethyl)pyridin-2-yl)phenyl)ethyl)amino)-2-ethyl-2,3-dihydro-1H-pyrrolo[3,4-c]pyridin-1-one]
20 | 100 to 500 | 100 to 500 | 100 to 500 | C[C@H](Nc1nccc2c1CN(CCO)C2=O)c1cc(F)c(-c2ccnc(C(C)(C)C)c2)cc1F [Compound 159, (S)-4-((1-(4-(2-(tert-butyl)pyridin-4-yl)-2,5-difluorophenyl)ethyl)amino)-2-(2-hydroxyethyl)-2,3-dihydro-1H-pyrrolo[3,4-c]pyridin-1-one]
21 | 100 to 500 | > 1000 | > 1000 | CCN1Cc2c(ccnc2N[C@@H](C)c2cc(F)c(-c3cc(C(F)(F)F)cc(O)n3)cc2F)C1=O [Compound 157, (S)-4-((1-(2,5-difluoro-4-(6-hydroxy-4-(trifluoromethyl)pyridin-2-yl)phenyl)ethyl)amino)-2-ethyl-2,3-dihydro-1H-pyrrolo[3,4-c]pyridin-1-one]
22 | < 100 | < 100 | < 100 | CCN1Cc2c(ccnc2N[C@@H](C)c2cc(F)c(-c3cc(C(C)(C)C)ncc3O)cc2F)C1=O [Compound 138, (S)-4-((1-(4-(2-(tert-butyl)-5-hydroxypyridin-4-yl)-2,5-difluorophenyl)ethyl)amino)-2-ethyl-2,3-dihydro-1H-pyrrolo[3,4-c]pyridin-1-one]
23 | < 100 | 100 to 500 | 100 to 500 | CCN1Cc2c(ccnc2N[C@@H](C)c2cc(F)c(-c3ccc(OC)c(C(C)(C)C)n3)cc2F)C1=O [Compound 149, (S)-4-((1-(4-(6-(tert-butyl)-5-methoxypyridin-2-yl)-2,5-difluorophenyl)ethyl)amino)-2-ethyl-2,3-dihydro-1H-pyrrolo[3,4-c]pyridin-1-one]
24 | < 100 | < 100 | < 100 | CCN1Cc2c(ccnc2N[C@@H](C)c2cc(F)c(-c3cc(C(C)(C)F)c(OCOC)cn3)cc2F)C1=O [Compound 161, (S)-4-((1-(2,5-difluoro-4-(4-(2-fluoropropan-2-yl)-5-(methoxymethoxy)pyridin-2-yl)phenyl)ethyl)amino)-2-ethyl-2,3-dihydro-1H-pyrrolo[3,4-c]pyridin-1-one]
